From paper PMC6630718, “Discovery of Novel UV-Filters with Favorable Safety Profiles in the 5-Arylideneimidazolidine-2,4-dione Derivatives Group” (Molecules, 2019)

Experiments:
[1] = Photostability in methanol solutions (solar light simulator); format: physicochemical; design: λmax pre-irradiation: unit not given beside the values; conditions: methanol solution; for % of initial AUC post-irradiation / λmax post-irradiation: 1h irradiation at 500 W/m2
Method: (§1) The photostability evaluation of compounds was performed both in methanol solutions and in macrogol formulations. Irradiation of samples according to previous studies was conducted for 1 h at 500 W/m^2 (cumulative dose of ultraviolet radiation 218 kJ/m^2) with solar light simulator (Suntest CPS+, Atlas, Linsengericht, Germany) equipped with an optical filter cutting off wavelengths shorter than 290 nm and IR-block filter to neutralize thermal effects. The UV absorption spectrum of the samples were analysed post-irradiation and compared with pre-irradiation results. UPLC-MS/MS analyses were also performed.
(§2) Methanol solutions were tested at concentration 25 or 50 µM in quartz cuvettes with the PTFE stopper to prevent evaporation or leaking of the solvent. Macrogol formulations (2% w/w) were tested on PMMA plates (1.3 mg/cm^2). After post-irradiation measure of UV absorption, exposed and unexposed plates were washed with 5 mL of methanol, then mixtures were filtered and analysed by UPLC-MS/MS. All analyses were performed in duplicates.

[2] = In vitro photoprotection study of 2% (w/w) macrogol formulations on PMMA plates
Text: (§3) The composition of formulations and concentration of tested compounds were based on their limited solubility. N-monosubstituted compounds 2a–2e were insoluble at desirable concentrations in the typical solvents used in cosmetic formulations such as alcohols, triacetin, surfactants, and co-surfactants. To dissolve compounds 2a and 2b before incorporation to the formulation DMSO: Tween 20 (1:9 w/w) was used, for less soluble 2c–2e it was necessary to use DMSO alone as solvent. […] Thus the detailed composition of the formulations is as follows: F1–Tween 20 43.2%, PEG-400 25%, PEG-1500 25%, Triacetin 4.8%, tested compound 2%; F2–Tween 20 43.2%, PEG-400 25%, PEG-1500 25%, DMSO 4.8%, tested compound 2%; F3–PEG-400 25%, PEG-1500 25%, DMSO 48%, tested compound 2%. Considering the disadvantages of currently reported macrogol formulations and the low concentration achieved for the tested compounds (2%), we plan to work on cosmetic emulsions containing the most promising derivatives at higher concentrations as well as required excipients including preservatives, antioxidants, etc. This research will be carried out in the near future.
Tested compounds and commercial UV filters as reference standards were incorporated to a neutral macrogel formulation in the concentration of 2%. Prior to the incorporation, compounds 3a–3e and 4f–4h and reference UV-filters were dissolved in a triacetin:Tween 20 (1:9) solvent system. For compounds 2a–2e it was necessary to use DMSO. The final composition of the macrogol formulations is presented in the photoprotective activity section.
In vitro photoprotection study was performed according to EN ISO 24443:2012 [71] with slight modifications. Formulation with tested compound (32.5 mg) was applied on a polymethylmethacrylate plate (PMMA) with the application area 25 cm^2 and 5 µm roughness value to simulate the skin surface (Schonberg GmbH, Hamburg, Germany). As a reference a PMMA plate treated with approximately 15 µL of glycerin was used. Measurements were carried out by reflectance spectrophotometry with SPF-290AS Analyser (Solar Light Company, Glenside, PA, USA) equipped with integrating sphere controlled by WinSPF version X.X. software. For each sample two plates were prepared, absorbance measures were performed on 6 different positions of the plate from 290 to 400 nm with 1 nm steps. The results were expressed as an average of data from 12 scans.

[3] = Solubility in cosmetic solvents / macrogol formulations; format: physicochemical; conditions: typical cosmetic solvents / formulations used
Text: as §3

[4] = Ultraviolet spectroscopy in methanol solutions; format: physicochemical; conditions: for Absorption Range: scan range 290–400 nm
Method: Spectra with a scan range of 290–400 nm were recorded in 50 or 25 μM methanol solutions, in 1 cm path length, 1.5 mL quartz cuvettes on a U-2800 double beam spectrophotometer (Hitachi, Tokyo, Japan) controlled by UV Solution version 2.2 software. The molar extinction coefficient at maximum absorption (εmax) of tested compounds was determined in methanol as the slope of the linear regression of absorbance vs. concentration of tested compound (from 10 to 50 μM or 2.5 to 30 μM).

[5] = Photostability in macrogol formulations on PMMA plates (solar light simulator); format: physicochemical
Method: After irradiation of thin layer of formulations applied on PMMA plates, their photoprotective parameters were determined and compared with the pre-irradiation results. The study gives an overview on functional photostability of the tested compounds. It is an important test, because the photostability of some compounds in low concentrated solutions may meaningfully differ from results obtained for higher concentrations used in sunscreen products. […] In the present study both UVB and UVA-absorbers were tested, so the changes in SPFin vitro, UVA PF and AUC after irradiation are taken into account as a measure of photostability.
as §1, §2

[6] = In vitro stability in mouse liver microsomes; format: in vitro ADME; conditions: mouse liver microsomes; for half-life at 20 µM / microsomal CLint at 20 µM: mouse; for half-life at 20 µM: pH 7.4, mouse liver microsomes 0.8 mg/mL, 20 µM compound, NADPH-regenerating system, 37 °C, read-out: t ½; for microsomal CLint at 20 µM: pH 7.4, mouse liver microsomes, calculated from t1/2
Method: Mouse liver microsomes (MLMs) were used to investigate the phase I metabolism of selected compounds (2c, 2d, 3b, 4g, 5a) and the reference substance BP-2. Samples composed of test compound (20 µM), MLMs (0.8 mg/mL) and potassium phosphate buffer (100 mM, pH 7.4) were preincubated prior to addition of NADPH-regenerating system. NADPH-regenerating system contained NADP, glucose-6-phosphate, glucose-6-phosphate dehydrogenase and potassium phosphate buffer (100 mM, pH 7.4). Control incubations were performed in the absence of the NADPH-regenerating system and in case of esters (2c, 2d, 3b and 4g) without the mouse liver microsomes solution to determine spontaneous hydrolysis. Incubations were conducted at 37 °C for at least 15 min up to 60 min. The reactions were stopped by the addition of 250 μL ice-cold methanol containing internal standard PTX (20 μM). The mixture was then centrifuged. Supernatant analysis was performed using UPLC/MS (Waters Corporation). The assays were repeated two times. The in vitro half times (t1/2) for test compounds were determined from the slope of the linear regression of ln % parent compound remaining versus incubation time. The calculated t1/2 was incorporated into the following equation to obtain intrinsic clearance: (Clint) = (volume of incubation [µL]/ protein in the incubation [mg]) × 0.693 / t1/2 [74].

[7] = MTT cytotoxicity, skin panel model (melanocytes); format: cell-based; conditions: Primary Epidermal Melanocytes (PCS-200-013, ATCC), human primary dermal melanocytes, highest tested concentration (50 µM), read-out: cell viability (% of control)
Method: Primary Epidermal Melanocytes were cultured in Dermal Cell Basal Medium (ATCC) supplemented with Adult Melanocyte Growth Kit Components (ATCC), HaCaT and BJ cells were cultured in Dulbecco’s modified Eagle’s medium (DMEM; New York, NY, USA) and supplemented with 10% fetal bovine serum (FBS; Gibco, New York, NY, USA). Cell maintenance was performed in a humidified incubator at 37 °C with 5% CO2. Cells were passage when the culture has reached approximately 80 to 90% confluence. Cells were seeded at density of 6 × 10^3 on 96-well plates. Following overnight culture, the cells were then treated with increasing doses of compounds and incubated for 24 h. Following cell exposure to each drug for 24 h, 10 µL MTT reagent (Sigma Aldrich, Darmstadt, Germany) was added to each well. After 4 hours incubation (37 °C, 5% CO2), the medium was aspirated and the formazan produced in the cells appeared as dark crystals in the bottom of the wells. Next, DMSO (dissolving solution) was added to each wells. Then the optical density (OD) of solution was determined at 570 nm on micro plate reader (Spectra iD3 Max, Molecular Devices; San Jose, CA, USA). Viability (% of control) was determined by dividing A570 of experimental wells by of A570 of control wells × 100%.

[8] = Neurocytotoxicity, MTT assay; format: cell-based; conditions: human, SH-SY5Y neuroblastoma cells, highest concentration (50 µM), read-out: cell viability (% of control)
Method: For […] assays a human neuroblastoma cell line—SH-SY5Y (CRL-2266™, ATCC) and a human hepatocellular carcinoma cell line–HepG2, respectively have been used. Cells were seeded on 96-well plates at an initial density of 10,000 cells per well. Cells were cultured in standard conditions for 24 h and then study compounds were administrated at different concentrations (10–50 μM) for another 24 h. After incubation time cells viability was measured with MTT assay. For this purpose culture medium has been replaced for the fresh one and MTT reagent (3-(4,5-dimethylthiazol-2-yl)-2,5-diphenyltetrazolium bromide) has been added at the concentration 0.5 mg/mL. Cells were incubated with MTT reagent at 37 °C for 4 h. Then formazan crystals have been dissolved in DMSO solution and the absorbance has been measured at 570 nm. Experiments were conducted in triplicates. Values represent mean percent of viability (in the percent of control).

[9] = 2% (w/w) macrogol formulation F2 (DMSO 4.8%)
[10] = after 1 h irradiation at 500 W/m^2, formulation F2 (DMSO 4.8%)
[11] = after 1 h irradiation at 500 W/m^2, formulation F3 (DMSO 48%)
[12] = 2% (w/w) macrogol formulation F3 (DMSO 48%)
[13] = 2% (w/w) macrogol formulation F1 (Triacetin 4.8%)
[14] = after 1 h irradiation at 500 W/m^2, formulation F1

melting point	λmax pre-irradiation [1]	% of initial AUC post-irradiation [1]	λmax post-irradiation [1]	εmax [4]	λmax [4]	Absorption Range [4]	% of Initial AUC [5, 11]	% of Initial SPFin vitro [5, 11]	% of Initial UVA PF [5, 11]	Probable Transformation [6]	half-life at 20 µM [6]	microsomal CLint at 20 µM [6]	SMILES	SPFin vitro [2, 12]	UVA PF [2, 12]	UVA/UVB Ratio [2, 12]	λc (critical wavelength) [2, 12]	other results
169 to 171 °C	316	70.45%	317	28460 M⁻¹ cm⁻¹	316 nm	290–345 nm	46.72%	33.25%	37.87%				CCOC(=O)CN1C(=O)N/C(=C\c2ccccc2)C1=O [Compound 2a, Ethyl (Z)-2-(4-benzylidene-2,5-dioxoimidazolidin-1-yl)acetate]					decrease of AUC after irradiation [1]: ~30%; shift of λmax after irradiation [1]: 1 nm; SPFin vitro [2, 9]: 4.79 ± 0.02; UVA PF [2, 9]: 2.40 ± 0.01; UVA/UVB Ratio [2, 9]: 0.35 ± 0.00; λc (critical wavelength) [2, 9]: 339 nm; solubility (in words) [3]: only slightly soluble; improvement of the functional photostability ([5]; DMSO in formulation reduced from 48 to 4.8%): 31.1%; % of Initial AUC [5, 10]: 62.42%; % of Initial SPFin vitro [5, 10]: 55.49%; % of Initial UVA PF [5, 10]: 68.96%; percentage of photoisomer formation ([5]; two formulations differing in the content of DMSO (48 and 4.8%), which value belongs to which is not given): 48%
181 to 182 °C	336	96.89%	344	35610 M⁻¹ cm⁻¹	336 nm	290–376 nm	34.13%	44.37%	35.83%	O-dealkylation	33 min	52 µL/min/mg	CCOC(=O)CN1C(=O)N/C(=C\c2ccc(OCC)cc2)C1=O [Compound 2c, Ethyl (Z)-2-(4-(4-ethoxybenzylidene)-2,5-dioxoimidazolidin-1-yl)acetate]	3.16 ± 0.05	4.68 ± 0.02	1.36 ± 0.01	367 nm	
197 to 198 °C	349	100.96%	354	30700 M⁻¹ cm⁻¹	349 nm	290–394 nm	58.87%	75.69%	51.45%	O-dealkylation	15 min	59 µL/min/mg	CCOC(=O)CN1C(=O)N/C(=C\c2ccc(OC)cc2OC)C1=O [Compound 2d, Ethyl (Z)-2-(4-(2,4-dimethoxybenzylidene)-2,5-dioxoimidazolidin-1-yl)acetate]	2.00 ± 0.11	4.48 ± 0.38	2.59 ± 0.09	386 nm	decrease of tested parameters (SPFin vitro, UVA PF, AUC) after irradiation ([5]; formulation with DMSO 48% (F3), extreme values): 41.1%
198 to 200 °C	344	97.8%	351	30740 M⁻¹ cm⁻¹	344 nm	290–381 nm	41.99%	56.00%	38.99%	O-dealkylation	41 min	21 µL/min/mg	CCOC(=O)CN1C(=O)N/C(=C\c2ccc(OC)c(OC)c2)C1=O [Compound 2e, Ethyl (Z)-2-(4-(3,4-dimethoxybenzylidene)-2,5-dioxoimidazolidin-1-yl)acetate]	2.50 ± 0.08	4.77 ± 0.24	1.95 ± 0.02	379 nm	
	299	87.76%	303	25550 M⁻¹ cm⁻¹	299 nm	290–332 nm							Cc1ccc(/C=C2/C(=O)C3(C)CCC2C3(C)C)cc1 (centres unmarked) [Compound 4-MBC, 4-methylbenzylidene camphor, reference compound]					UVA PF [2, 13]: 1.08 ± 0.1; UVA/UVB Ratio [2, 13]: 0.00 ± 0.00; λc (critical wavelength) [2, 13]: 316 nm; SPFin vitro ([2]; 2% (w/w) macrogol formulation F1 (Tween 20, PEG-400, PEG-1500, Triacetin 4.8%)): 5.59 ± 0.27; % of Initial AUC [5, 14]: 90.89%; % of Initial SPFin vitro [5, 14]: 91.05%; % of Initial UVA PF [5, 14]: 101.39%; viability at 24 h, 50 µM [7]: < 36%; viability at 24 h, 50 µM [8]: < 31%
